From patent US20240217967A1, “INDOLINE DERIVATIVES AS DDRS INHIBITORS” (CHIESI FARMACEUTICI S.P.A., priority 2021, published 2024)

Columns and labels:
DDR1 [1] = molecular target: T1, DDR1 (Homo sapiens, UniProt Q08345); assay: DDR1 cell based assay (PathHunter U2OS DDR1, collagen II stimulation); details: U2OS-DDR1 cells, bovine Type II Collagen stimulation
Summary of the method: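 Receptor activation measured by enzyme-fragment complementation luminescence in engineered U2OS cells. Compound added 30 min before overnight challenge with 20 μg/ml bovine collagen II; data scaled between vehicle and collagen-stimulated controls, IC50 derived by four-parameter variable-slope fitting.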

DDR2 [2] = molecular target: T2, DDR2 (Homo sapiens, UniProt Q16832); assay: DDR2 cell based assay (phospho-ELISA in HEK293T-DDR2 recombinant cells, collagen II stimulation); details: bovine Type II Collagen stimulation
T2 sequence (Q16832 22-855): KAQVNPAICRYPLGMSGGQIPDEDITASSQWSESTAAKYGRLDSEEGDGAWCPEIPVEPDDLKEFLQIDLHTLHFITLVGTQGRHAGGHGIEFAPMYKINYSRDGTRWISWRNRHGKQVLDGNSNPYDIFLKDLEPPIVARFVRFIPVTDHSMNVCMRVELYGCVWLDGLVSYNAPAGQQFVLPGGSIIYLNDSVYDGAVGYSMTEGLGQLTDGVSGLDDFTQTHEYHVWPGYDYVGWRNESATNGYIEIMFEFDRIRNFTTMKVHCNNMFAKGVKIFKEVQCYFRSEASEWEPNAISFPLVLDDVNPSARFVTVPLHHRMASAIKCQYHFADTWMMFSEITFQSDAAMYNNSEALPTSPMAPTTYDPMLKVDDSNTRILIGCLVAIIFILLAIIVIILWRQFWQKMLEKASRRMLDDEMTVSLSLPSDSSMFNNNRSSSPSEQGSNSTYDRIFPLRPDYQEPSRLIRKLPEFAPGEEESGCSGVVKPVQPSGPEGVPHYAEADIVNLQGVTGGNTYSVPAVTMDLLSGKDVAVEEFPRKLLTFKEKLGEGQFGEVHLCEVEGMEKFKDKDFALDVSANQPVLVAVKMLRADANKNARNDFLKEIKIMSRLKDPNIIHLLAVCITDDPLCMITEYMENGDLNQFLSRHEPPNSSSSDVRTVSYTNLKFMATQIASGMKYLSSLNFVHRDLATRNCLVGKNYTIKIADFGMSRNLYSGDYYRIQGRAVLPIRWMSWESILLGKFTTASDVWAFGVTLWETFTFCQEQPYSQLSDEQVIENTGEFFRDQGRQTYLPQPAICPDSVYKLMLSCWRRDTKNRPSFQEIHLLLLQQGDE
Description: The inhibition of DDR2 phosphorylation by compounds was evaluated in HEK293T-DDR2 recombinant cells by phospho-ELISA assay. Briefly, HEK293T-DDR2 cells were seeded in poly-D-lysine-coated 24-well plates at a density of 250.000 cells/well and incubated for 1.5 hours at 37° C. and 5% CO2 in DMEM+10% FBS. After that, the medium was changed to serum-free DMEM and cells were incubated for 3 hours. Then. test compounds were added at different concentrations 30 minutes before stimulation with bovine Type II Collagen at 50 μg/ml for further 3 hours. For DDR2 phospho-ELISA assay (DuoSet IC Human Phospho-DDR2; R&D Systems), protein extracts were obtained by adding 60 μl/well of lysis buffer prepared according to the manufacturer's instructions. Protein concentration in the samples was determined by BCA assay and the levels of phospho-DDR2 were determined following R&D Systems indications. Raw data were normalized to maximal inhibition control (0% for normalization) and positive control (100% for normalization; cells treated with […] collagen II) and IC50 parameters were calculated in GraphPad Prism 8.0 software, using sigmoidal dose-response curve fitting with variable slope.

DDR1 [3] = molecular target: T1, DDR1; assay: DDR1 LanthaScreen Europium Kinase Binding assay; details: binding affinity; IC50 converted in Ki using Cheng-Prusoff; read-out: Ki DDR1
Summary of the method: (§1)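 Binding by TR-FRET tracer displacement: compounds incubated 1 h at room temperature with 5 nM DDR1 plus 20 nM Kinase Tracer 178, or 5 nM DDR2 plus 10 nM tracer, and 2 nM Eu anti-GST antibody in pH 7.5 HEPES/MgCl2/EGTA/BRIJ35 buffer. 665/615 nm ratio gave four-parameter IC50, converted to Ki via Cheng-Prusoff.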

DDR2 [4] = molecular target: T2, DDR2; assay: DDR2 LanthaScreen Europium Kinase Binding assay; details: binding affinity; IC50 converted in Ki using Cheng-Prusoff; read-out: Ki DDR2
Summary of the method: as §1

T1 sequence (Q08345 19-913): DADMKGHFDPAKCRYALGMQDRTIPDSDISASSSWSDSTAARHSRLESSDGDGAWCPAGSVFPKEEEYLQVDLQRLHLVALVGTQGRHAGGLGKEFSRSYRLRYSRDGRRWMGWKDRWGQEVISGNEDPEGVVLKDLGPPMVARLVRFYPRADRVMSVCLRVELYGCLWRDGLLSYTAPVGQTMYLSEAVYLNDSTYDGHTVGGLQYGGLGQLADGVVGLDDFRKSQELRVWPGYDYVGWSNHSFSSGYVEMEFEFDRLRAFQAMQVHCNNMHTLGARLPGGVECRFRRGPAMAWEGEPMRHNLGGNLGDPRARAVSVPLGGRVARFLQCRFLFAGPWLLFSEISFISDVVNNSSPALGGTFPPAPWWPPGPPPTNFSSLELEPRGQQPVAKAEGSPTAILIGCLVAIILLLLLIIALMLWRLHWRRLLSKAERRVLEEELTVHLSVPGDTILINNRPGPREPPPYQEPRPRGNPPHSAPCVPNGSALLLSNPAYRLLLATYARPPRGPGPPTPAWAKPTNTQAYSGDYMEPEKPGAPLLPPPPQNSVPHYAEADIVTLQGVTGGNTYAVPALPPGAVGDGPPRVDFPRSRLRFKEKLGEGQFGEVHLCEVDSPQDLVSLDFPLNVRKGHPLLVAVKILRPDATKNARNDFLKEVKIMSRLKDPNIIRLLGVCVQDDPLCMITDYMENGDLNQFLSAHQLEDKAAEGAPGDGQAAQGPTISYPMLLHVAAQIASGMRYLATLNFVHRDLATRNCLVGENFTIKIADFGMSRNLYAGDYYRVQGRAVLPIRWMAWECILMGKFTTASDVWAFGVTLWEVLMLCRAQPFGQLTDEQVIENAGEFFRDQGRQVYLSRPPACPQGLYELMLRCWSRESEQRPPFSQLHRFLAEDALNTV

Row | Compound | IC50 (DDR1 [1]) | IC50 (DDR2 [2]) | Ki (DDR1 [3]) | Ki (DDR2 [4])
1 | Cc1cn(-c2cc(C(=O)Nc3ccc4c(c3)N(C(=O)c3cnc5[nH]ncc5c3)CC4)cc(C(F)(F)F)c2)cn1 [Example 21, N-(1-(1H-pyrazolo[3,4-b]pyridine-5-carbonyl)indolin-6-yl)-3-(4-methyl-1H-imidazol-1-yl)-5-(trifluoromethyl)benzamide] | 0.025 to 0.05 µM | < 0.025 µM | < 0.025 µM | < 0.025 µM
2 | Cc1cn(-c2cc(NC(=O)c3ccc4c(c3)N(Cc3cnc5[nH]ccc5c3)CC4)cc(C(F)(F)F)c2)cn1 [Example 2, 1-((1H-pyrrolo[2,3-b]pyridin-5-yl)methyl)-N-(3-(4-methyl-1H-imidazol-1-yl)-5-(trifluoromethyl)phenyl)indoline-6-carboxamide] | < 0.025 µM | < 0.025 µM | < 0.025 µM | < 0.025 µM
3 | CC1CN(Cc2cnc3cnccn23)c2cc(C(=O)Nc3cccc(C(F)(F)F)c3)ccc21 (stereo not shown) [Example 31, 1-(imidazo[1,2-a]pyrazin-3-ylmethyl)-3-methyl-N-(3-(trifluoromethyl)phenyl)indoline-6-carboxamide] | < 0.025 µM | 0.05 to 0.08 µM | < 0.025 µM | < 0.025 µM
4 | O=C(Nc1cc(F)cc(C(F)(F)F)c1)c1ccc2c(c1)N(Cc1cnc3[nH]ncc3c1)CC2 [Example 39, 1-((1H-pyrazolo[3,4-b]pyridin-5-yl)methyl)-N-(3-fluoro-5-(trifluoromethyl)phenyl)indoline-6-carboxamide] | < 0.025 µM | 0.025 to 0.05 µM | 0.025 to 0.05 µM | < 0.025 µM
5 | CN1CCN(Cc2ccc(NC(=O)c3ccc4c(c3)N(Cc3cnc5[nH]nc(N6CCOCC6)c5c3)CC4)cc2C(F)(F)F)CC1 [Example 89, N-[4-[(4-methylpiperazin-1-yl)methyl]-3-(trifluoromethyl)phenyl]-1-[(3-morpholino-1H-pyrazolo[3,4-b]pyridin-5-yl)methyl]indoline-6-carboxamide] | < 0.025 µM | 0.05 to 0.08 µM | < 0.025 µM | < 0.025 µM
6 | O=C(Nc1cccc(OC(F)(F)F)c1)c1ccc2c(c1)N(Cc1cnc3[nH]ncc3c1)CC2 [Example 37, 1-((1H-pyrazolo[3,4-b]pyridin-5-yl)methyl)-N-(3-(trifluoromethoxy)phenyl)indoline-6-carboxamide] | < 0.025 µM | < 0.025 µM | < 0.025 µM | < 0.025 µM
7 | CN1CCN(Cc2cc(NC(=O)c3ccc4c(c3)N(Cc3cnc5[nH]ccc5c3)CC4)cc(C(F)(F)F)c2)CC1 [Example 9, 1-((1H-pyrrolo[2,3-b]pyridin-5-yl)methyl)-N-(3-((4-methylpiperazin-1-yl)methyl)-5-(trifluoromethyl)phenyl)indoline-6-carboxamide] | < 0.025 µM | < 0.025 µM | < 0.025 µM | < 0.025 µM

Further lines, results first:

Row | IC50 (DDR1 [1]) | IC50 (DDR2 [2]) | Ki (DDR1 [3]) | Ki (DDR2 [4]) | Compound
8 | < 0.025 µM | < 0.025 µM | < 0.025 µM | < 0.025 µM | Cc1n[nH]c2ncc(CN3CCc4ccc(C(=O)Nc5ccc(CN(C)C)c(C(F)(F)F)c5)cc43)cc12 [Example 69, N-(4-((dimethylamino)methyl)-3-(trifluoromethyl)phenyl)-1-((3-methyl-1H-pyrazolo[3,4-b]pyridin-5-yl)methyl)indoline-6-carboxamide]
9 | < 0.025 µM | < 0.025 µM | < 0.025 µM | < 0.025 µM | Cc1n[nH]c2ncc(CN3CCc4ccc(C(=O)Nc5cc(C(C)(C)C)no5)cc43)cc12 [Example 80, N-(3-(tert-butyl)isoxazol-5-yl)-1-((3-methyl-1H-pyrazolo[3,4-b]pyridin-5-yl)methyl)indoline-6-carboxamide]
10 | < 0.025 µM | 0.05 to 0.08 µM | < 0.025 µM | < 0.025 µM | Cc1cn(-c2cc(NC(=O)c3ccc4c(c3)N(Cc3cnc5[nH]ncc5c3)CC4)cc(C(F)(F)F)c2)cn1 [Example 6, 1-((1H-pyrazolo[3,4-b]pyridin-5-yl)methyl)-N-(3-(4-methyl-1H-imidazol-1-yl)-5-(trifluoromethyl)phenyl)indoline-6-carboxamide]
11 | < 0.025 µM | 0.05 to 0.08 µM | < 0.025 µM | < 0.025 µM | Cc1cn(-c2cc(C(=O)Nc3ccc4c(c3)N(Cc3cnc5[nH]ncc5c3)CC4)cc(C(F)(F)F)c2)cn1 [Example 38, N-(1-((1H-pyrazolo[3,4-b]pyridin-5-yl)methyl)indolin-6-yl)-3-(4-methyl-1H-imidazol-1-yl)-5-(trifluoromethyl)benzamide]
12 | < 0.025 µM | 0.05 to 0.08 µM | < 0.025 µM | < 0.025 µM | CC(C)(c1cc(NC(=O)c2ccc3c(c2)N(Cc2cnc4[nH]ncc4c2)CC3)no1)C(F)(F)F [Example 36, 1-((1H-pyrazolo[3,4-b]pyridin-5-yl)methyl)-N-(5-(1,1,1-trifluoro-2-methylpropan-2-yl)isoxazol-3-yl)indoline-6-carboxamide]
13 | < 0.025 µM | 0.025 to 0.05 µM | < 0.025 µM | < 0.025 µM | Cc1cn(-c2cc(NC(=O)c3ccc4c(c3)N(Cc3cnc5[nH]nc(C)c5c3)CC4)cc(C(F)(F)F)c2)cn1 [Example 7, N-(3-(4-methyl-1H-imidazol-1-yl)-5-(trifluoromethyl)phenyl)-1-((3-methyl-1H-pyrazolo[3,4-b]pyridin-5-yl)methyl)indoline-6-carboxamide]
